Assay results taken from US20250163122A1, “COMPOSITIONS AND METHODS FOR TREATING AIRWAY MUCUS DYSFUNCTION” (BOARD OF REGENTS, THE UNIVERSITY OF TEXAS SYSTEM, priority 2022, published 2025).
Entries after “also recorded” stand apart in the source; their conditions may differ. Where a SMILES comes first, the peptide text is derived from it. Bridges are numbered along the chain shown (N, C = ends). [ ]: non-standard residue; d: D form. S5 = C=CCCC[C@](C)(N)C(=O)O

How the values were obtained:
[1] = CD spectroscopy, α-helical content of peptides; format: physicochemical; details: for helical content, ranking in words: among the peptides tested
Procedure: CD spectroscopy. CD spectra were measured with an AVIV stop-flow CD spectropolarimeter at 190 to 250 nm using a cell with a 1 mm path-length. The sample containing […] of synthesized peptides in PBS buffer (137 mM NaCl, 2.7 mM KCl, 10 mM Na2HPO4, and 2 mM KH2PO4, pH 7.4) was measured at 20° C. For the correction of the baseline error, the signal from a blank run with PBS buffer was subtracted from all the experimental spectra. The α-helical content of each peptide was calculated by dividing the mean residue ellipticity [φ]222obs by the reported [φ]222obs for a model helical decapeptide (Yang et al., 1986).

neuronal SNAREs only = assay: Single vesicle content mixing assay, neuronal SNAREs only (VAMP2 vesicles); format: biochemical; details: 10 μM peptide; raw count
Excerpt: For single vesicle content mixing assay, the lipid composition of the SV, SG, VAMP2, or VAMP8 vesicles was phosphatidylcholine (PC) (48%), phosphatidylethanolamine (PE) (20%), phosphatidylserine (PS) (12%), and cholesterol (20%); for both the neuronal and airway PM vesicles the lipid composition was Brain Total Lipid Extract supplemented 3.5 mol % PIP2, and 0.1 mol % biotinylated phosphatidylethanolamine (PE). The reconstitution method for neuronal PM and SV vesicles was described in detail previously (see Lai et al., 2017; Kyoung et al., 2011; and Lai et al., 2014). The same methods were used for airway PM, SG, VAMP2, and VAMP8 vesicles. […] A 3-5 fold excess of SNAP-25A or SNAP-23 (with respect to Stx1A or Stx3) and 3.5 mol % PIP2 were added to the protein-lipid mixture for neuronal or airway PM vesicles. […] For the preparation of SV, SG, VAMP2, or VAMP8 vesicles for single vesicle content mixing assay, 50 mM sulforhodamine B (Thermo Fisher Scientific) was added to the protein-lipid mixture. The vesicles subsequently formed during size exclusion chromatography using a Sepharose CL-4B column, packed under near constant pressure by gravity with a peristaltic pump (GE Healthcare) in a 5.5 ml column with a 5 ml bed volume that was equilibrated with buffer V (20 mM HEPES, pH 7.4, 90 mM NaCl) supplemented with 20 μM EGTA and 0.1% 2-mercaptoethanol. The eluent was subjected to dialysis into 21 of detergent-free buffer V supplemented with 20 μM EGTA, 0.1% 2-mercaptoethanol, 5 g of Bio-beads SM2 (Bio-Rad) and 0.8 g/L Chelex 100 resin (Bio-Rad). After 4 hours, the buffer was exchanged with 21 of fresh buffer V supplemented with 20 μM EGTA, 0.1% 2-mercaptoethanol and Bio-beads, and the dialysis continued for another 12 h (overnight). […] For ensemble lipid mixing assay, the reconstitution method is the same as that for the single vesicle content mixing assay, except that 50 mM sulforhodamine B was omitted for all the steps. Single vesicle content mixing experiments. All single vesicle fusion and single molecule experiments were performed on a prism-type total internal reflection fluorescence (TIRF) microscope using 532 nm (green) laser (CrystaLaser) excitation. Two observation channels were created by a 640 nm single-edge dichroic […]36, Shemrock): one channel was used for the fluorescence emission intensity of the content dyes and the other channel for that of the Cy5 dye that are part of the injected Ca^2+-solution. The two channels were recorded on two adjacent rectangular areas (45×90 m^2) of a charge-coupled device (CCD) camera (iXon+DV […], Andor Technology). The imaging data were recorded with the […] software developed by Taekjip Ha, Johns Hopkins University, Baltimore. Flow chambers were assembled by creating a “sandwich” consisting of a quartz slide and a glass coverslip that were both coated with polyethylene glycol (PEG) molecules consisting 0.1% (w/v) biotinylated-PEG except when stated otherwise, and using double-sided tape to create up to five flow-chambers. The single vesicle content mixing assay described in Lai et al. (2014) was used to monitor vesicle-vesicle association, Ca^2+-independent, and Ca^2+-triggered fusion. The surface of the quartz slides was passivated by coating the surface with polyethylene glycol (PEG) molecules which alleviated non-specific binding of vesicles. […]

Row | Molecule | helical content, ranking in words [1] | Ca2+ independent fusion events (neuronal SNAREs only) | helicity / helical content ([1]; in solution, CD [φ]222 vs model helical decapeptide) [%]
1 | Ac-SKDA(S5)IRT(S5)VM(S5)DEQ(S5)EQL-amide (Ac-SKDA[S5]IRT[S5]VM[S5]DEQ[S5]EQL-NH2; staple 12-16, 5-9; SMILES CC[C@H](C)[C@@H]1NC(=O)[C@@](C)(NC(=O)[C@H](C)NC(=O)[C@H](CC(=O)O)NC(=O)[C@H](CCCCN)NC(=O)[C@H](CO)NC(C)=O)CCCC=CCCC[C@@](C)(C(=O)N[C@H](C(=O)N[C@@H](CCSC)C(=O)N[C@@]2(C)CCCC=CCCC[C@@](C)(C(=O)N[C@@H](CCC(=O)O)C(=O)N[C@@H](CCC(N)=O)C(=O)N[C@@H](CC(C)C)C(N)=O)NC(=O)[C@H](CCC(N)=O)NC(=O)[C@H](CCC(=O)O)NC(=O)[C@H](CC(=O)O)NC2=O)C(C)C)NC(=O)[C@H]([C@@H](C)O)NC(=O)[C@H](CCCNC(=N)N)NC1=O) [SP4] | largest helical content | 356 | –
2 | EESKDAGIRTLVMLDEQGEQLD [Peptide P0, non-stapled SNAP-25A fragment used as a control, reference compound] | – | 104 | 5
3 | Ac-SKD(S5)GIR(S5)LVMLDE(S5)GEQ(S5)DR-amide (Ac-SKD[S5]GIR[S5]LVMLDE[S5]GEQ[S5]DR-NH2; staple 15-19, 4-8; SMILES CC[C@H](C)[C@@H]1NC(=O)CNC(=O)[C@@](C)(NC(=O)[C@H](CC(=O)O)NC(=O)[C@H](CCCCN)NC(=O)[C@H](CO)NC(C)=O)CCCC=CCCC[C@@](C)(C(=O)N[C@@H](CC(C)C)C(=O)N[C@H](C(=O)N[C@@H](CCSC)C(=O)N[C@@H](CC(C)C)C(=O)N[C@@H](CC(=O)O)C(=O)N[C@@H](CCC(=O)O)C(=O)N[C@@]2(C)CCCC=CCCC[C@@](C)(C(=O)N[C@@H](CC(=O)O)C(=O)N[C@@H](CCCNC(=N)N)C(N)=O)NC(=O)[C@H](CCC(N)=O)NC(=O)[C@H](CCC(=O)O)NC(=O)CNC2=O)C(C)C)NC(=O)[C@H](CCCNC(=N)N)NC1=O) [SP1] | largest helical content | 245 | –
4 | Ac-SKD(S5)GIR(S5)LV(S5)LDE(S5)GEQL-amide (Ac-SKD[S5]GIR[S5]LV[S5]LDE[S5]GEQL-NH2; staple 11-15, 4-8; SMILES CC[C@H](C)[C@@H]1NC(=O)CNC(=O)[C@@](C)(NC(=O)[C@H](CC(=O)O)NC(=O)[C@H](CCCCN)NC(=O)[C@H](CO)NC(C)=O)CCCC=CCCC[C@@](C)(C(=O)N[C@@H](CC(C)C)C(=O)N[C@H](C(=O)N[C@@]2(C)CCCC=CCCC[C@@](C)(C(=O)NCC(=O)N[C@@H](CCC(=O)O)C(=O)N[C@@H](CCC(N)=O)C(=O)N[C@@H](CC(C)C)C(N)=O)NC(=O)[C@H](CCC(=O)O)NC(=O)[C@H](CC(=O)O)NC(=O)[C@H](CC(C)C)NC2=O)C(C)C)NC(=O)[C@H](CCCNC(=N)N)NC1=O) [SP10] | largest helical content | 341 | –
5 | CC[C@H](C)[C@H](NC(=O)[C@]1(C)CCCC=CCCC[C@](C)(NC(=O)[C@H](CCC(=O)O)NC(=O)[C@H](CCC(=O)O)NC(C)=O)C(=O)N[C@@H](CCCCN)C(=O)N[C@@H](CC(=O)O)C(=O)N[C@@H](C)C(=O)N1)C(=O)N[C@@H](CCCNC(=N)N)C(=O)N[C@@]1(C)CCCC=CCCC[C@@](C)(C(=O)N[C@@H](CC(=O)O)C(=O)N[C@@H](CCC(=O)O)C(=O)N[C@@H](CCC(N)=O)C(=O)N[C@@H](CS)C(N)=O)NC(=O)[C@H](CCSC)NC(=O)[C@H](C(C)C)NC(=O)[C@H](CC(C)C)NC1=O [SP9, Ac-EE(S5)KDA(S5)IR(S5)LVM(S5)DEQC-amide] (Ac-EE[S5]KDA[S5]IR[S5]LVM[S5]DEQC-NH2; staple 3-7, 10-14) | largest helical content; also recorded: highest α-helicity | 336 | –
